Data: patent publication US8148391B2 (Cephalon, Inc., priority 2006, dated 2012)
Read-outs that look alike come from different tables or passages of the source. One block for each compound: values may come before it.

Key:
[1] = target: T1, c-Met (cytoplasmic domain) (Homo sapiens, UniProt P08581); experiment: c-Met Kinase Assay (same methods as for ALK, with modifications); assay type: biochemical
T1 construct: 10 ng/mL c-Met (cytoplasmic domain, Invitrogen Corporation #PV3143); purchased Invitrogen Corporation PV3143
T1 sequence (P08581 956-1390 limits assumed): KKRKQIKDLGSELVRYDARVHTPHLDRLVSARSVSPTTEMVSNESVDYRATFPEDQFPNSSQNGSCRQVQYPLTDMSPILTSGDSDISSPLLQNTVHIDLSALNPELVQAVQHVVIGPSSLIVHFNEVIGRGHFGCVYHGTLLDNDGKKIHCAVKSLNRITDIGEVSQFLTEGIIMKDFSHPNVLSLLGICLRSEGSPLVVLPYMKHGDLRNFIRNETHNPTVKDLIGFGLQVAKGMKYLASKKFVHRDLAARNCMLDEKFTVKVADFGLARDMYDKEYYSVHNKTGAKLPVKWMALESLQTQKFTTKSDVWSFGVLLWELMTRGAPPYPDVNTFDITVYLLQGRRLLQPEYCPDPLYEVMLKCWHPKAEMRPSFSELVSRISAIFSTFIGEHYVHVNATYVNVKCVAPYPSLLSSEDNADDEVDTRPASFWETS
Summary of the method: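 This plate-based kinase format uses immobilized phospholipase C-γ as substrate, phosphorylated by c-Met cytoplasmic domain (10 ng/mL) at 37° C for 15 minutes.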

[2] = target: T2, baculovirus-expressed ALK (Homo sapiens, UniProt Q9UM73); experiment: ALK Kinase Assay (ELISA-type, time-resolved fluorescence); assay type: biochemical
T2 construct: host or cells: baculovirus expression system
T2 sequence (Q9UM73 19-1620): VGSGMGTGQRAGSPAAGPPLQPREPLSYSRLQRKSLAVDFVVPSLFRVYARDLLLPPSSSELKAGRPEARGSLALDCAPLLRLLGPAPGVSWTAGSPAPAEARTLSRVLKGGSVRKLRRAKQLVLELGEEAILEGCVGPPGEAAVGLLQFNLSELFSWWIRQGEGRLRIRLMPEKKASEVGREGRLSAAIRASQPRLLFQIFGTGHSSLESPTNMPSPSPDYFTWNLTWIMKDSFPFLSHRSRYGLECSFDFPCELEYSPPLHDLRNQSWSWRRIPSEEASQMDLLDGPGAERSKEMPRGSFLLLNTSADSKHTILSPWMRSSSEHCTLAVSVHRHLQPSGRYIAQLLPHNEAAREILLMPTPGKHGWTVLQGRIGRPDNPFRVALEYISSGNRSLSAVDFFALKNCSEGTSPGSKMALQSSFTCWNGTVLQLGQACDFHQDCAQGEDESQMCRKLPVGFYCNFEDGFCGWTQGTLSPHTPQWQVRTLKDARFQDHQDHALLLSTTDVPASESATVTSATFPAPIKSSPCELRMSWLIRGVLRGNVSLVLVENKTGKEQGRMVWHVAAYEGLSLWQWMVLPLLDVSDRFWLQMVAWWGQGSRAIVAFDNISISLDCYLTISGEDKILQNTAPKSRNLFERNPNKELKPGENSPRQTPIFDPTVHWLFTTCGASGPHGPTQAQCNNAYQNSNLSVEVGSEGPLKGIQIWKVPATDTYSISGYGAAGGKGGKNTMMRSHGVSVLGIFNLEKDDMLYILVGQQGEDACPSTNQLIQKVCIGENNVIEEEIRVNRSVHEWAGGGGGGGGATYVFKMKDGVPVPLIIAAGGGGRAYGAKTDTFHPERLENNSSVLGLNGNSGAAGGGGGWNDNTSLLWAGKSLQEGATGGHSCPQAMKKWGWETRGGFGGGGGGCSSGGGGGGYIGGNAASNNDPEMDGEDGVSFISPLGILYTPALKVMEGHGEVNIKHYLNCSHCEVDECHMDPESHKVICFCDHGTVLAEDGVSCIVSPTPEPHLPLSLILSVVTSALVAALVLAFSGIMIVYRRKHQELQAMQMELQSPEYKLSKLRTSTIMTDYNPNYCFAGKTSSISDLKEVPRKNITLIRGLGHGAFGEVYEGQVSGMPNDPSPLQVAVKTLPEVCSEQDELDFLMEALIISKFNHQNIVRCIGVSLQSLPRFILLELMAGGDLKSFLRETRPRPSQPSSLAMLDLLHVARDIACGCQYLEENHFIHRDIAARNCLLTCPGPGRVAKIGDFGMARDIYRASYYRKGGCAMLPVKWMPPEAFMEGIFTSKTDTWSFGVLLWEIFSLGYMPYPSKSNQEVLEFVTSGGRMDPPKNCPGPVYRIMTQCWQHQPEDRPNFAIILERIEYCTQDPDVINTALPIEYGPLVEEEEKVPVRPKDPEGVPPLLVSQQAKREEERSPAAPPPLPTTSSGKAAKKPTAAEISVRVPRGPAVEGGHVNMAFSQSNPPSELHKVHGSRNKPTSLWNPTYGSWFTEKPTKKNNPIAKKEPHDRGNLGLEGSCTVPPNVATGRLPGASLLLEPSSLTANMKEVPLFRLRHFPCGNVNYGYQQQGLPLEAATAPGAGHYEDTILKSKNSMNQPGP
Summary of the method: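 Substrate coating: phospholipase C-γ, 10 μg/mL in TBS. Kinase step: 30 ng/ml ALK, 15 min, 37° C. Detection and analysis: Eu-N1 PT66 antibody, with IC50 fitted as a sigmoidal variable-slope dose-response curve.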

[3] = 1 μM ATP (Km level), 10 ng/mL c-Met, read-out: cMet Activity (c-Met kinase inhibition, IC50 class)
[4] = 1 μM ATP (Km level), 30 ng/ml ALK, 37° C., 15 minutes, read-out: ALK Activity (ALK kinase inhibition, IC50 class)
[5] = c-Met kinase inhibition, 1 μM ATP (Km level), read-out: cMet Activity
[6] = ALK kinase inhibition, 1 μM ATP (Km level), read-out: ALK Activity
[7] = c-Met kinase inhibition, 1 μM ATP, read-out: cMet Activity
[8] = ALK kinase inhibition, 1 μM ATP, read-out: ALK Activity
[9] = 1 μM ATP (Km level), read-out: cMet Activity (c-Met Kinase Inhibition, IC50)
[10] = 1 μM ATP (Km level), read-out: ALK Activity (ALK Kinase Inhibition, IC50)

Compound: CCN1CCc2ccc(Nc3ncc(Cl)c(Nc4ccccc4NS(C)(=O)=O)n3)c(OC)c2CC1 [Example 233, N-{2-[5-Chloro-2-(3-ethyl-6-methoxy-2,3,4,5-tetrahydro-1H-benzo[d]azepin-7-ylamino)-pyrimidin-4-ylamino]-phenyl}-methanesulfonamide]
IC50 [1, 5]: > 10 µM
IC50 [2, 6]: < 0.1 µM

Compound: CNS(=O)(=O)c1ccccc1Nc1nc(Nc2ccc3c(c2)CCCC(=O)N3CC(=O)N2CCN(C)CC2)ncc1Cl [Example 10, 2-(5-Chloro-2-{1-[2-(4-methyl-piperazin-1-yl)-2-oxo-ethyl]-2-oxo-2,3,4,5-tetrahydro-1H-benzo[b]azepin-7-ylamino}-pyrimidin-4-ylamino)-N-methyl-benzenesulfonamide]
IC50 [1, 5]: < 0.1 µM
IC50 [2, 6]: < 0.1 µM

Compound: CC1(C)CCC(=O)Nc2cc(Nc3ncc(Cl)c(Nc4ccc(N5CCOCC5)cc4OCCC#N)n3)ccc21 [Example 1690, 3-{2-[5-Chloro-2-(5,5-dimethyl-2-oxo-2,3,4,5-tetrahydro-1H-benzo[b]azepin-8-ylamino)-pyrimidin-4-ylamino]-5-morpholin-4-yl-phenoxy}-propionitrile]
IC50 [1, 7]: 1 to 10 µM
IC50 [2, 8]: < 0.1 µM

Compound: COCC(COC)N1CCc2cc(Nc3ncc(Cl)c(Nc4ccccc4S(=O)(=O)N4CCCC4)n3)c(OC)cc2CC1 [Example 844, 5-Chloro-N*2*-[8-methoxy-3-(2-methoxy-1-methoxymethyl-ethyl)-2,3,4,5-tetrahydro-1H-benzo[d]azepin-7-yl]-N*4*-[2-(pyrrolidine-1-sulfonyl)-phenyl]-pyrimidine-2,4-diamine]
IC50 [1, 9]: 1 to 10 µM
IC50 [2, 10]: < 0.1 µM

Compound: COc1cc2c(cc1Nc1ncc(Cl)c(Nc3ccccc3S(=O)(=O)C(C)C)n1)CCC(N1CCN(C)CC1)CC2 (stereo not drawn) [Example 1100, 5-Chloro-N*2*-[3-methoxy-7-(4-methyl-piperazin-1-yl)-6,7,8,9-tetrahydro-5H-benzocyclohepten-2-yl]-N*4*-[2-(propane-2-sulfonyl)-phenyl]-pyrimidine-2,4-diamine]
IC50 [1, 3]: 1 to 10 µM
IC50 [2, 4]: < 0.1 µM

Compound: CNC(=O)c1cccc(F)c1Nc1nc(Nc2ccc3c(c2)N(C(=O)CN2CCCC2)CCCO3)ncc1Cl [Example 1704, 2-{5-Chloro-2-[9-(2-pyrrolidin-1-yl-acetyl)-6,7,8,9-tetrahydro-5-oxa-9-aza-benzocyclohepten-2-ylamino]-pyrimidin-4-ylamino}-3-fluoro-N-methyl-benzamide]
IC50 [1, 7]: 0.1 to 1 µM
IC50 [2, 8]: 1 to 10 µM

Compound: CNC(=O)c1cccc(F)c1Nc1nc(Nc2ccc3c(c2)C(C)(C)NC(=O)CC3)ncc1Cl [Example 1831, 2-(5-Chloro-2-(1,1-dimethyl-3-oxo-2,3,4,5-tetrahydro-1H-benzo[c]azepin-8-ylamino)pyrimidin-4-ylamino)-3-fluoro-N-methylbenzamide]
IC50 [1, 7]: < 0.1 µM
IC50 [2, 8]: 1 to 10 µM

Compound: COc1c(Nc2ncc(Cl)c(Nc3ccccc3S(=O)(=O)N(C)C)n2)ccc2c1CCC(N1CCN(C)CC1)CC2 (stereo not drawn) [Example 911, 2-{5-Chloro-2-[1-methoxy-7-(4-methyl-piperazin-1-yl)-6,7,8,9-tetrahydro-5H-benzocyclohepten-2-ylamino]-pyrimidin-4-ylamino}-N,N-dimethyl-benzenesulfonamide]
IC50 [1, 9]: 1 to 10 µM
IC50 [2, 10]: < 0.1 µM

Compound: C#CCNC(=O)c1cccc(F)c1Nc1nc(Nc2ccc3c(c2)OCCCN3C(=O)CN2CCCC2)ncc1Cl [Example 1716, 2-{5-Chloro-2-[9-(2-pyrrolidin-1-yl-acetyl)-6,7,8,9-tetrahydro-5-oxa-9-aza-benzocyclohepten-3-ylamino]-pyrimidin-4-ylamino}-3-fluoro-N-prop-2-ynyl-benzamide]
IC50 [1, 7]: < 0.1 µM
IC50 [2, 8]: 0.1 to 1 µM

Compound: CNC(=O)[C@@H]1CCC[C@@H]1Nc1nc(Nc2ccc3c(c2)CCN(CCOC)CC3)ncc1Cl (relative stereo) [Example 372, cis-2-{5-Chloro-2-[3-(2-methoxy-ethyl)-2,3,4,5-tetrahydro-1H-benzo[d]azepin-7-ylamino]-pyrimidin-4-ylamino}-cyclopentanecarboxylic acid methylamide]
IC50 [1, 5]: 0.1 to 1 µM
IC50 [2, 6]: < 0.1 µM

Compound: CCNC(=O)c1cccc(F)c1Nc1nc(Nc2cc3c(cc2OC)CCN(CC(F)F)CC3)ncc1Cl [Example 777, 2-{5-Chloro-2-[3-(2,2-difluoro-ethyl)-8-methoxy-2,3,4,5-tetrahydro-1H-benzo[d]azepin-7-ylamino]-pyrimidin-4-ylamino}-N-ethyl-3-fluoro-benzamide]
IC50 [1, 9]: 1 to 10 µM
IC50 [2, 10]: < 0.1 µM

Compound: CCN1CCOc2cc(Nc3ncc(Cl)c(Nc4ccccc4C(=O)NC)n3)ccc2C1=O [Example 515, 2-[5-Chloro-2-(4-ethyl-5-oxo-2,3,4,5-tetrahydro-benzo[f][1,4]oxazepin-8-ylamino)-pyrimidin-4-ylamino]-N-methyl-benzamide]
IC50 [1, 9]: < 0.1 µM
IC50 [2, 10]: < 0.1 µM

Other lines, results leading:

IC50 [1, 3]: < 0.1 µM
IC50 [2, 4]: < 0.1 µM
Compound: CC(C)S(=O)(=O)c1ccccc1Nc1nc(Nc2ccc3c(c2)C(C)(C)CCC(=O)N3C)ncc1Cl [Example 1329, 7-{5-Chloro-4-[2-(propane-2-sulfonyl)-phenylamino]-pyrimidin-2-ylamino}-1,5,5-trimethyl-1,3,4,5-tetrahydro-benzo[b]azepin-2-one]

IC50 [1, 3]: < 0.1 µM
IC50 [2, 4]: 0.1 to 1 µM
Compound: CC(=O)N1CCC(=O)NCc2cc(Nc3ncc(Cl)c(Nc4c(C)cccc4OCC#N)n3)ccc21 [Example 1246, {2-[2-(1-Acetyl-4-oxo-1,2,3,4,5,6-hexahydro-benzo[b][1,5]diazocin-8-ylamino)-5-chloro-pyrimidin-4-ylamino]-3-methyl-phenoxy}-acetonitrile]

IC50 [1, 7]: 1 to 10 µM
IC50 [2, 8]: < 0.1 µM
Compound: CNC(=O)c1ccccc1Nc1nc(Nc2cc3c(cc2OC)CCOC(=O)N3C)ncc1Cl [Example 1511, 2-[5-Chloro-2-(2-methoxy-5-methyl-6-oxo-5,6,8,9-tetrahydro-7-oxa-5-aza-benzocyclohepten-3-ylamino)-pyrimidin-4-ylamino]-N-methyl-benzamide]

IC50 [1, 7]: < 0.1 µM
IC50 [2, 8]: < 0.1 µM
Compound: CNC(=O)c1scc(C)c1Nc1nc(Nc2ccc3c(c2)CC(=O)NCC3)ncc1Cl [Example 1812, 3-[5-Chloro-2-(4-oxo-2,3,4,5-tetrahydro-1H-benzo[d]azepin-7-ylamino)-pyrimidin-4-ylamino]-4-methyl-thiophene-2-carboxylic acid methylamide]

IC50 [1, 7]: < 0.1 µM
IC50 [2, 8]: 1 to 10 µM
Compound: CNC(=O)c1scc(C)c1Nc1nc(Nc2ccc3c(c2)CCC(=O)NC3(C)C)ncc1Cl [Example 1829]

IC50 [1, 3]: < 0.1 µM
IC50 [2, 4]: 0.1 to 1 µM
Compound: CN1C(=O)CCCc2cc(Nc3ncc(Cl)c(Nc4c(F)cccc4C(=O)NCCC#N)n3)ccc21 [Example 1042, 2-[5-Chloro-2-(1-methyl-2-oxo-2,3,4,5-tetrahydro-1H-benzo[b]azepin-7-ylamino)-pyrimidin-4-ylamino]-N-(2-cyano-ethyl)-3-fluoro-benzamide]

IC50 [1, 9]: > 10 µM
IC50 [2, 10]: < 0.1 µM
Compound: (1S,2S,3R,4R)-3-[5-Chloro-2-[4-cyclopropylmethyl-7-methoxy-2,3,4,5-tetrahydro-1H-benzo[e][1,4]diazepin-8-ylamino)-pyrimidin-4-ylamino]-bicyclo(2.2.1)hept-5-ene-2-carboxylic acid amide [Example 747]

IC50 [1, 9]: > 10 µM
IC50 [2, 10]: < 0.1 µM
Compound: COc1cc2c(cc1Nc1ncc(Cl)c(Nc3ccc(OC)c4c3C(=O)N(C)C4)n1)CCN(CC(=O)N(C)C)CC2 [Example 937, 2-{7-[5-Chloro-4-(7-methoxy-2-methyl-3-oxo-2,3-dihydro-1H-isoindol-4-ylamino)-pyrimidin-2-ylamino]-8-methoxy-1,2,4,5-tetrahydro-3-benzazepin-3-yl}-N,N-dimethyl-acetamide]

IC50 [1, 9]: 0.1 to 1 µM
IC50 [2, 10]: < 0.1 µM
Compound: CS(=O)(=O)N[C@@H]1CCCC[C@H]1Nc1nc(Nc2ccc3c(c2)CCC(NCC(F)F)CC3)ncc1Cl (stereo partly drawn) [Example 662, N-((1R,2R)-2-{5-Chloro-2-[7-(2,2-difluoro-ethylamino)-6,7,8,9-tetrahydro-5H-benzocyclohepten-2-ylamino]-pyrimidin-4-ylamino}-cyclohexyl)-methanesulfonamide]

IC50 [1, 5]: < 0.1 µM
IC50 [2, 6]: < 0.1 µM
Compound: CNC(=O)c1ccccc1Nc1nc(Nc2ccc3c(c2)N(C)CCN(C(=O)n2ccnc2)C3)ncc1Cl [Example 486, 2-{5-Chloro-2-[4-(imidazole-1-carbonyl)-1-methyl-2,3,4,5-tetrahydro-1H-benzo[e][1,4]diazepin-8-ylamino]-pyrimidin-4-ylamino}-N-methyl-benzamide]

IC50 [1, 5]: > 10 µM
IC50 [2, 6]: < 0.1 µM
Compound: CCN1C(=O)C(C)(C)CCc2c1ccc(Nc1ncc(Cl)c(NC3C4C=CC(C4)C3C(N)=O)n1)c2OC (stereo not drawn) [Example 142, (2-exo, 3-exo)-3-[5-Chloro-2-(1-ethyl-6-methoxy-3,3-dimethyl-2-oxo-2,3,4,5-tetrahydro-1H-benzo[b]azepin-7-ylamino)-pyrimidin-4-ylamino]-bicyclo[2.2.1]hept-5-ene-2-carboxylic acid amide]

IC50 [1, 7]: 1 to 10 µM
IC50 [2, 8]: 1 to 10 µM
Compound: COCCN1CCc2ccc(Nc3ncc(Cl)c(Nc4c(F)cccc4OCC(=O)OC)n3)cc2CC1 [Example 1727, (2-{5-Chloro-2-[3-(2-methoxy-ethyl)-2,3,4,5-tetrahydro-1H-benzo[d]azepin-7-ylamino]-pyrimidin-4-ylamino}-3-fluoro-phenoxy)-acetic acid methyl ester]
